Reference: patent publication US20250195523A1, “ORGANIC MOLECULES FOR TREATING MYELIN PATHOLOGIES” (ICM (INSTITUT DU CERVEAU ET DE LA MOELLE ÉPINIÈRE), priority 2022, published 2025)

What was measured:
[1] = test system: neonatal chronic hypoxia model (dorsal SVZ and cortex); experiment: Neonatal chronic hypoxia model of preterm birth brain injury, intranasal administration; assay type: in vivo, mice
Procedure: Mice aged P1 were placed in a hypoxic rearing chamber maintaining at 9.5-10.5% O2 concentration by displacement with N2. Hypoxia began at the postnatal day 3 (P3) for 8 days until P11. A separate group was maintained in a normal atmosphere (normoxic group). […] Mucus was first permeabilized by the use of type IV hyaluronidase, then 10 μl of drugs (Sigma) was administered 3 times, 1 time a day from P11 to P13 (starting at the end of the hypoxic period, then every 24 hours) in sterile PBS (control). For analysis of proliferation, mice were injected with EdU (Sigma) in order to label cells in an actively cycling state in S-phase, then perfused 1 h later at P13. For analysis of OL maturation, mice were perfused at P19. All perfusions were performed with Ringer, followed by ice cold solution of 4% paraformaldehyde (Thermo Fisher). Mice were sacrificed at P13 or P19 by an intraperitoneal overdose of pentobarbital followed by perfusion with Ringer's lactate solution and 4% paraformaldehyde (PFA; Sigma) dissolved in 0.1M phosphate buffer (PB; pH 7.4). Brains were removed and post-fixed for 24 hours at 4° C. in 4% PFA and sectioned in 50 μm thick coronal serial sections, free floating sections.
For in vivo-cryosections (50 μm) of chronic hypoxia, antigen retrieval was performed for 20 min in a citrate buffer (ph 6.0) at 80° C., then cooled for 20 min at room temperature and washed in 0.1M PB. The following antibody were used for immunohistochemical procedures: Mouse anti-APC (CC1 IgG2B; 1:100, calbiochem); Mouse anti-Olig2 (1:1500; Millipore); Rabbit anti-Olig2 (1:400; Millipore); Rabbit anti-GSTpi (1:1000, Enzo). Blocking was performed in a TNB buffer (0.1 M PB; 0.05% Casein; 0.25% Bovine Serum Albumin; 0.25% TopBlock) with 0.4% triton-X (TNB-Tx). Sections were incubated overnight at 4° C. with gentle shaking. Following extensive washing in 0.1 M PB with 0.4% triton-X (PB-Tx), sections were incubated with appropriate secondary antibodies conjugated with Alexa Fluor 488 or 555 (1:500; Jackson or Invitrogen) for 2 hrs at room temperature. Sections were washed and counterstained with Dapi (1:5000 from a working solution at 5 mg/ml; Life Technologies; D1306). Revelation of EdU was done using Click-it™, EdU cell proliferation Kit for imaging, Alexa fluor™ 647 dye (Thermo Fisher scientific).
Chronic hypoxia is a well-established model of very preterm birth, that induces a diffuse perinatal brain lesion by housing the pups at 10% oxygen from P3 to P11 (FIG. 5A). This neonatal hypoxia induces a marginal cell death including neuronal and glial cells along with delay into forebrain development including OL maturation that appear to persist in adulthood. […] We next assessed the impact on OL differentiation by immunodetection of OLs with CC1 antibody and oligodendroglial cells by Olig2.

[2] = test system: primary OPCs purified by magnetic cell sorting (MACS) from neonatal cortices; experiment: Primary OPC cultures purified by MACS, morphological complexity of OLs; assay type: cell-based, mice; conditions: OPCs treated for two days; compared to vehicle; FIG. 2B
Procedure: Brains were collected from PLPGFP and P4 Swiss mice […] and washed 3 times in PBS 1× (Invitrogen) with 1% of penicillin/streptomycin (Sigma). Cortex and corpus callosum were dissected and dissociated using neural tissue dissociation kit (T) (Miltenyi biotec) and with dissociator (gentleMACS Octo Dissociator, Miltenyi Biotec). OPC magnetic cell sorting was performed using anti-PDGFRα-coupled-beads (CD140a-PDGFRα MicroBead Kit, Miltenyi biotec) and MultiMACS Cell24 Separator Plus (Miltenyi biotec). Cells were collected in PBS and amplified for 2 days in a proliferating medium (with growth factors IGF, EGF, FGF, and PDGFα). Then, 40.000 cells were plated in 24 well plates adherent on coverslips, beforehand coated with poly-ornithine (Merck) diluted in 4 volumes of H2O and washed 3 times. Successively, for 2 days of proliferation and differentiation, medium was added with drugs at 250 nM, 500 nM and 750 nM, and their respective vehicles (DMSO, PBS). Cells were fixed in 4% PBS-paraformaldehyde (thermo fisher) for 10 minutes and washed 3 times in PBS-1×.
For coated-coverslip, blocking was performed in a moist chamber for 30 mn at room temperature (RT) in the blocking buffer (0.05% Triton X-100/10% normal goat serum/PBS). Then, coverslip were incubated for 30 mn with the following primary antibodies at RT. Rat anti-PDGFRα (1:250, BD Biosciences); Mouse anti-CNPase (mlgG1, 1:250; Millipore); Rabbit anti-Btub (1:1000; BABCO); Chicken anti-GFAP (1:500, Avelabs), Mouse anti-MBP (mlgG1, 1:150; Abcam); Rabbit anti-Sox10 (1:1000; Proteintech). Following 3 washing in 0.05% Triton X-100/PBS, coverslips were incubated 30 min at RT in dark with appropriate secondary antibodies conjugated with Alexa Fluor 488, 594 and 647 (1:1000; Molecular Probes or Thermo Fisher) and Dapi (1:5000 from working solution at 5 mg/ml; Life Technologies; D1306). Coverslips were washed 3 times in 0.05% Triton X-100/PBS and mounted with Fluoromount-G (SouthernBiotech).
To evaluate cell specific contribution of the drugs directly in OL differentiation and maturation, we used primary OPCs purified by magnetic cell sorting (MACS) from neonatal cortices (P4).

CCCCOc1ccc(C(=O)CCN2CCCCC2)cc1.Cl [Sm5, Dyclonine hydrochloride]
EdU+ cell density within the subventricular zone (proliferation) ([1]; P13, intranasal P11 to P13, sm5 at 5 μg per g, sm11 at 0.5 μg per g, versus hypoxia, FIG. 6A): no marked additive effects
proportion of Olig2+ cells labeled with EdU (proliferative OPCs, dorsal SVZ) ([1]; P13, intranasal P11 to P13, versus hypoxia, FIG. 6B): significant increase
myelinating OLs (GSTπ+ cells), GSTπ expression ([1]; P19, cortex, intranasal P11 to P13, after hypoxia, FIG. 5D): complete recovery
OL differentiation, ratio of Olig2+ cells expressing CC1 ([1]; P19, cortex, intranasal P11 to P13, compared to hypoxic and normoxic groups, FIG. 5C): increased OL differentiation beyond the normoxic and sm11 groups
density of oligodendroglial cells (Olig2+ cells) in the cortex ([1]; P19, intranasal P11 to P13, FIG. 5B): no major effect
morphological complexity of OLs (PLP+ cells) [2]: strongly increased
